From EP2349249B1, “SYNERGISTIC COMPOSITION FOR RECOVERY AND REDUCTION OF MILD ISCHEMIC DAMAGE” (Giellepi S.p.A., priority 2008, dated 2010)

Columns and labels:
H9c2 cells [1] = test: MTT cell viability assay in doxorubicin-treated cells; format: cell-based; details: H9c2 cells treated for 24 hours with 0.5 µM doxorubicin; for minimal effective concentration: Rattus norvegicus, MTT dose-response curve, read-out: minimum effective concentration required to improve viability (sufficient to induce protection)
Method: Cells were seeded at a concentration of 1.8x10^3/well in 96-well plates and incubated at 37°C for 24 hours. Cells were then incubated for additional 24 hours after addition of water or doxorubicin (0.5 µM final concentration) in presence of different concentrations of Cr and/or Rib, as indicated in the figures. Cell viability was determined by the 2-(4,5-dimethyltriazol-2-yl)-2,5-diphenyl tetrazolium bromide assay (MTT, Sigma, St Louis, Mo). Briefly, after addition to each well of 20µl of the MTT solution in PBS at a concentration of 5 mg/ml, cells were incubated at 37°C for 4 hours. After removal of the supernatant, 100 µl of DMSO were added to dissolve the formazan salts produced and optical density (OD) was read at λ=540 nm. For each treatment, five replicates were performed. The viability index was calculated, for each treatment, as ODx/OD0, where ODx and OD0 are the average ODs at time x and at time zero.
The optimal working concentration was determined by a dose-response curve using the MTT assay (vital dye staining) in presence of Creatine and Ribose. To test the efficacy of creatine and ribose in maintaining cellular energy homeostasis, H9c2 cells were treated with doxorubicin, a well-known cardiotoxic agent that causes mitochondrial damage resulting in production of reactive oxygen species.

H9c2 cells [2] = test: Cell cycle profile by flow cytometry (propidium iodide) in simulated ischemia; format: cell-based; details: ischemic H9c2 cells; 2.5 mM Creatine and/or 5 mM Ribose
Method: The cell cycle profile was analyzed by flow cytometry after DNA staining with propidium iodide (PI, Sigma, St. Louis, Mo.). Cells were washed with PBS and fixed with 70% ethanol at -20°C, centrifuged (15 min at 1800 rpm), resuspended in 1 ml PBS containing 50 µg/ml PI and incubated for 1 hour at room temperature Cells were then analyzed by flow cytometry in a FACSorter (Becton Dickinson). The percentage of cells in different phases of the cell cycle was calculated using the CellQuest software program (Becton Dickinson).

SMILES: O=C[C@H](O)[C@H](O)[C@H](O)CO [Ribose, D-ribose]
- minimal effective concentration (H9c2 cells [1]): 5000 µM
- change of the percentage of cells progressing from G1 to S phase (H9c2 cells [2]): did not change

SMILES: CN(CC(=O)O)C(=N)N.O [Creatine, Creatine monohydrate]
- minimal effective concentration (H9c2 cells [1]): 2500 µM
- change of the percentage of cells progressing from G1 to S phase (H9c2 cells [2]): did not change

SMILES: COc1cccc2c1C(=O)c1c(O)c3c(c(O)c1C2=O)C[C@@](O)(C(=O)CO)C[C@@H]3O[C@H]1C[C@H](N)[C@H](O)[C@H](C)O1 [Doxo, doxorubicin, reference compound]
- decrease of viability compared to untreated cells (H9c2 cells [1]; MTT): 35%
